The values below come from ChEMBL document CHEMBL1201862, “PubChem BioAssay data set” (2004).

In experiment [1] the target is T1, Corticotropin-releasing factor receptor 2/Corticotropin-releasing factor-binding protein (Homo sapiens, UniProt P24387+Q13324).
T1 sequence (Q13324 whole entry): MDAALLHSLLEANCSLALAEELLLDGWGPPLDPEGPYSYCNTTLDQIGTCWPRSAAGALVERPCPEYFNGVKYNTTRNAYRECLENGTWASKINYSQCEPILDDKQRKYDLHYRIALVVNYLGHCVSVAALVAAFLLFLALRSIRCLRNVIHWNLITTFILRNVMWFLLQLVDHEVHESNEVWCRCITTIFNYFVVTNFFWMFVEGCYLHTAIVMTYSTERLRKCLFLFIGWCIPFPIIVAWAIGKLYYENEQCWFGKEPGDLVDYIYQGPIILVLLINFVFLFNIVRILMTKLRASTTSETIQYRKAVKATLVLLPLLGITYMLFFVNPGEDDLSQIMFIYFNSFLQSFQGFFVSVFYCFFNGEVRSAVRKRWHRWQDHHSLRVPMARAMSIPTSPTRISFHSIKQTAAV
T1 sequence (P24387 whole entry): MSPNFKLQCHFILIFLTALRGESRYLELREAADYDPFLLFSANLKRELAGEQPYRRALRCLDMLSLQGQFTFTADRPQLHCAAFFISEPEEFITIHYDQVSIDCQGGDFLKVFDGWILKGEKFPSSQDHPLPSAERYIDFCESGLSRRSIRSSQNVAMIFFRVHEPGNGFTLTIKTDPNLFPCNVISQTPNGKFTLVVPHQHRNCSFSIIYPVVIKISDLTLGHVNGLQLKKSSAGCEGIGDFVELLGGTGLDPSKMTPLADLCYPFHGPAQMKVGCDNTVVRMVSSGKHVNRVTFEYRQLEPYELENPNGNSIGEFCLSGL
Nature of the experiment: activators of CRF receptor 2 with binding protein – uHTS hits, confirmation (AID 602473). Format: functional. To be noted: read-out: EC50_Mean.

Experiment [2] has as its target T1, Corticotropin-releasing factor receptor 2/Corticotropin-releasing factor-binding protein. The experiment in a line: Dose Response confirmation of uHTS hits for small molecule antagonists of the CRF-binding protein and CRF-R2 receptor complex. Format: functional. The note with it: read-out: IC50_Mean.
The target of experiment [3] is T2, Polyadenylate-binding protein 1 (Homo sapiens, UniProt P11940). Nature of the experiment: PABP1 MLLE–PAM2 interaction inhibitors, dose response, miRNA deadenylation inhibitor project, biochemical, fluorescence polarization, Cy5-PAM2 peptide, secondary (AID 602260). The note with it: read-out: IC50_Mean. Format: functional.
The target in experiment [4] is T2, Polyadenylate-binding protein 1. Nature of the experiment: PABP1 MLLE–PAM2 binding inhibitor potency, dose response, biochemical, fluorescence polarization, FITC-PAM2 peptide (AID 602259). Format: functional. The note with it: read-out: IC50_Mean.
Experiment [5] deals with H4. The experiment in a line: Luminescence Cell-Based Dose Response HTS to Identify Activators of 5'UTR Stem-Loop Driven Prion Protein mRNA Translation in H4 Neuroglioblastoma Cells. [Related pubchem assays: 1829 (Project Summary), 1814 (Primary HTS)]. Format: functional. To be noted: Homo sapiens.
Experiment [6] can be described thus: Luminescence Cell-Based Dose Response HTS to Identify Activators of Luciferase Translation or Activity in H4 […] Cells. [Related pubchem assays: 1829 (Project Summary), 1814 (Primary HTS)]. Format: functional.
A short description of experiment [7]: Luminescence Cell-Based Dose Confirmation HTS to Identify Activators of 5'UTR Stem-Loop Driven Alpha-Synuclein mRNA Translation in H4 Neuroglioblastoma Cells. [Related pubchem assays: 1829 (Project Summary), 1814 (Primary HTS)]. It is filed as functional.
Experiment [8] has as its target Cytochrome P450 2C19 (Homo sapiens, UniProt P33261). Nature of the experiment: Cytochrome panel assay with activity outcomes. Panel member name: p450-cyp2c19 Compounds with AC50 equal or less than 10 uM are considered active. Format: functional. The note with it: read-out: AC50.
Experiment [9] has as its target Cytochrome P450 2C9 (Homo sapiens, UniProt P11712).

Activity calls are given as the source filed them.

T2 sequence (P11940 whole entry): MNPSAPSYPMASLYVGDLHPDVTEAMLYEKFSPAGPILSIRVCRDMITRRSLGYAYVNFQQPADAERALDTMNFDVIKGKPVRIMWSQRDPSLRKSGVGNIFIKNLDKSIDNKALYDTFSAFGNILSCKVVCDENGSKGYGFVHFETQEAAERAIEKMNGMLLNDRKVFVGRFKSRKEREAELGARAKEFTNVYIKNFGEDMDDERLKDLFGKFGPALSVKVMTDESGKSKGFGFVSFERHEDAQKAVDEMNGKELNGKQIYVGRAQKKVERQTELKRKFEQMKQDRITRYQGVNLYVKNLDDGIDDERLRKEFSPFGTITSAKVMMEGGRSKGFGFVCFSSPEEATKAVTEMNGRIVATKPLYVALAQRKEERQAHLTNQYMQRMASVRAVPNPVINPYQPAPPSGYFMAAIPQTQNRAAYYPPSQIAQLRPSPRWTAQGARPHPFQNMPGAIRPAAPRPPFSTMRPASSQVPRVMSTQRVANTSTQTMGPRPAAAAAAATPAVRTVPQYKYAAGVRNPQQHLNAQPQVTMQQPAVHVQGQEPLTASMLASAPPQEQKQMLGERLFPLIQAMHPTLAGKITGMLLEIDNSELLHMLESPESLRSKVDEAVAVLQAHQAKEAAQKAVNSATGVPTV
Sequence of Cytochrome P450 2C9 (P11712 whole entry): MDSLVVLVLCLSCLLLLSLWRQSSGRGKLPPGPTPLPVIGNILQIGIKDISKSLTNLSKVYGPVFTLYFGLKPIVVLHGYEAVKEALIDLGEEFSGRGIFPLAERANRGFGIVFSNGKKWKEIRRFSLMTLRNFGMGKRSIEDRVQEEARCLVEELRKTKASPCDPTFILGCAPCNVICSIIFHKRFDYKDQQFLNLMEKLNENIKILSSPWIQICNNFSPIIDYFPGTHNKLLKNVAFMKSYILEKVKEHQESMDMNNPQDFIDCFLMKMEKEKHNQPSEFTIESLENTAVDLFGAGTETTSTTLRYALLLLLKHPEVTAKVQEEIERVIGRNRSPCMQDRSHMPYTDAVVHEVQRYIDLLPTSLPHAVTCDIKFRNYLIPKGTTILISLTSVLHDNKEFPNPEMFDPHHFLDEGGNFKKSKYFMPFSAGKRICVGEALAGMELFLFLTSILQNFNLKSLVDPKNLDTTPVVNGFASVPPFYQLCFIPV
Sequence of Cytochrome P450 2C19 (P33261 whole entry): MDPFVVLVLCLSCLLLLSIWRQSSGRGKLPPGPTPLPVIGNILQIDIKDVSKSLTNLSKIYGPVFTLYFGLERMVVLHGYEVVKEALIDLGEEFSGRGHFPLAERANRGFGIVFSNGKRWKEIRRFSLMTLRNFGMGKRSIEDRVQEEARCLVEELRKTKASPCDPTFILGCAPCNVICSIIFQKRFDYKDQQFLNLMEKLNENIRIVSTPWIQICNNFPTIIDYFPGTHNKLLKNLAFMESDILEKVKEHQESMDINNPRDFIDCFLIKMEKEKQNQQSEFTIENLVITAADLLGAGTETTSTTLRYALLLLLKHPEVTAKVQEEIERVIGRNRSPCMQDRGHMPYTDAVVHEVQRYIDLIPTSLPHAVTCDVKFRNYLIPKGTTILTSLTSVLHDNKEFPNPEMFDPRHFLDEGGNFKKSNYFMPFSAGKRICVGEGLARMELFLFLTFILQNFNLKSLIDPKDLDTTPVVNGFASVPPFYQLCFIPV

In the case of `CCOc1ccc(NC(=O)[C@@H](NC(=O)c2ccccc2)[C@@H](C)CC)cc1`, the EC50 in experiment [1] is > 53 µM (inactive). Further, the IC50 in experiment [2] is > 47.1 µM (inactive).
As for `Cc1cccc(C)c1OCC(O)Cn1nnc2ccccc21` (configuration not stated), the EC50 in experiment [1] was > 53 µM (inactive). In addition, the IC50 in experiment [2] is > 47.1 µM (inactive).
Consider `COc1ccc(Cc2nnc(NC(=O)C3CCCO3)s2)cc1OC` (configuration not stated), for which the IC50 in experiment [3] and in [4] was > 66 µM (inactive) in each case.
On to `CCOC(=O)Cc1csc(NC(=S)NC(=O)c2ccccc2Br)n1`, for which the IC50 in experiment [3] and in experiment [4] was > 66 µM (inactive) throughout.
For the compound `Cc1sc(NC(=O)CCCC(=O)O)c(C(N)=O)c1-c1ccccc1`, the IC50 in experiment [3] and in experiment [4] was > 66 µM (inactive) each time.
Consider `Cc1cccc(NC(=O)c2cc(-c3ccc(C)s3)nc3ccccc23)n1`, for which the EC50 was 9.88 µM (active) in experiment [5], > 60 µM (not active) in [6] and > 120 µM (not active) in experiment [7].
With `Fc1ccccc1C1CCN(Cc2nc(CC3CC3)no2)C1` (configuration not stated), the EC50 in experiment [5] is 15.4 µM (active); in [6] it was 17.2 µM (active); in experiment [7], 15 µM (active).
As to `CC(C)C(NS(=O)(=O)c1ccc2c(c1)oc(=O)n2C)C(=O)N1CCN(C2CCCCC2)CC1` (configuration not stated), in [1], the EC50 is > 53 µM (inactive). Further, the IC50 in experiment [2] is > 47.1 µM (inactive).
Take `Cc1ccc(S(=O)(=O)c2cc3ccccc3oc2=O)cc1`: the EC50 in experiment [5] and in [7] was > 120 µM (not active) in each case.
In the case of `Cc1cccc(NS(=O)(=O)c2cccc(C(=O)N3CCN(c4ccccn4)CC3)c2)c1`, the EC50 in [1] was > 53 µM (inactive). In addition, the IC50 in experiment [2] was > 47.1 µM (inactive).
Regarding `COC(=O)c1cn(NC(=O)c2ccc(F)cc2)c(=O)c2ccccc12`, the values for the AC50 in [8] and in [9] were 17.8 µM (inconclusive) and 39.8 µM (inconclusive), respectively. The EC50 in [1] was > 53 µM (inactive). The IC50 in experiment [2] was > 47.1 µM (inactive).
For the compound `COC(=O)CCCC1=CC2=C(c3ccccc3)C(=O)C(C)(OC(=O)C3CCCC3)C(=O)C2=CN1CCN1CCOCC1` (configuration not stated), the IC50 in [3] and in experiment [4] was > 66 µM (inactive) in each case.
Take `CCC1OC(=O)C(C)C(OC2C[C@@](C)(OC)C(O)C(C)O2)C(C)C(O[C@@H]2OC(C)CC(N(C)C)C2O)[C@](C)(O)CC(C)C(=NOCOCCOC)C(C)C(O)[C@]1(C)O` (some centres not stated): the EC50 in experiment [1] was > 53 µM (inactive). The IC50 in experiment [2] was > 47.1 µM (inactive).
For `COC(=O)C1=C(C)N(Cc2ccccc2)C(=O)N[C@H]1CCc1ccccc1` the same measures were > 53 µM (inactive) and > 47.1 µM (inactive).
As for `Cc1cc2cc(CNC(=O)c3ccc(S(=O)(=O)N4CCOCC4)cc3)ccc2[nH]1`, the IC50 in [3] and in experiment [4] was > 66 µM (inactive) each time.
In the case of `O=C(NC(=S)Nc1ccc(S(=O)(=O)N2CCCCC2)cc1)c1cccs1`, the IC50 in experiment [3] and in experiment [4] was > 66 µM (inactive) throughout.
With `Cc1cc(C)nc(Nc2nc(=O)c3ccccc3s2)n1`, the IC50 in [3] and in experiment [4] was > 66 µM (inactive) each time.
Consider `COC(=O)c1cn(C(=O)/C=C/c2ccc(OC)c(OC)c2)c2ccccc12`, for which the EC50 was > 120 µM (not active) in experiment [5], 32.1 µM (active) in [6] and 20.2 µM (active) in experiment [7].
For `O=C(NC(=S)Nc1ccc(Cc2ccncc2)cc1)c1ccccc1Cl`, the IC50 in experiment [3] and in [4] was > 66 µM (inactive) throughout.
Turning to `COc1ccc2oc(-c3ccncc3)cc(=O)c2c1`, the IC50 in experiment [3] and in experiment [4] was > 66 µM (inactive) throughout.
`CCCCOc1ccc(N2C(=O)C(C)CNC2=S)cc1` (configuration not stated): the IC50 in experiment [3] is > 66 µM (inactive); in experiment [4], 41.1 µM (inactive).
